Data published in US10953027B2, “Active agents and methods of their use for the treatment of metabolic disorders and nonalcoholic fatty liver disease” (Flagship Pioneering Innovations V, Inc., priority 2018, dated 2021).

Tests used:
[1] = Assay 2. Stability in Simulated Intestinal Fluid (SIF); type: in vitro ADME; conditions: 1 μM, 37° C., SIF pH 6.7 with pancreatin
Description: Assay 2. Stability of acylated active agents in Simulated Intestinal Fluid (SIF). This assay was used to assess the stability of an acylated active agent in a small intestine.
Phosphate buffer was prepared by dissolving 0.42 g of sodium hydroxide pellets and 3.95 g of monobasic sodium phosphate monohydrate and 6.19 g of sodium chloride in ultrapure water (MilliQ®, Millipore Sigma, Darmstadt, Germany). The pH was adjusted to 6.7 using aq. HCl and aq. NaOH, as necessary, and the solution was diluted with ultrapure water to produce 1 L of the pH 6.7 buffer.
112 mg FaSSIF powder (Biorelevant™, London, UK) was dissolved in 50 mL of the pH 6.7 buffer. 2 to 3 mL of the resulting solution were then added to 500 mg pancreatin (Millipore Sigma, Darmstadt, Germany). The resulting mixture was agitated by finger tapping the vessel containing the mixture until milky suspension formed. At this time, the remainder of the 50 mL FaSSiF/pH 6.7 buffer solution was added. The resulting suspension was flipped upside down 10 times to produce SIF, which was used fresh.
Test compounds were dissolved in DMSO stock to 1 mM. An aliquot of the DMSO stock solution was removed and diluted in the SIF media in 15 mL falcon tubes to produce a mixture with a tested compound concentration of 1 μM. A 1 mL aliquot was immediately removed and diluted once with 1 volume of acetonitrile for T0 timepoint. The mixture was sealed and agitated at 37° C. in an incubator. Aliquots (1 mL) were removed at regular intervals and immediately quenched by the addition of 1 volume of acetonitrile. The resulting samples were analyzed by LC/MS to determine degradation rates.

[2] = Assay 1. Stability in Simulated Gastric Fluid (SGF); type: in vitro ADME; conditions: 1 μM, 37° C., SGF pH 1.6 with pepsin
Description: Assay 1. Stability of acylated active agents in Simulated Gastric Fluid (SGF). This assay was used to assess the stability of an acylated active agent in a stomach.
Medium was prepared by dissolving 2 g of sodium chloride in 0.6 L of ultrapure water (MilliQ®, Millipore Sigma, Darmstadt, Germany). The pH was adjusted to 1.6 with 1N hydrochloric acid, and the volume was then adjusted to 1 L with purified water.
60 mg FaSSIF powder (Biorelevant™, London, UK) were dissolved in 500 mL buffer (above). Pepsin was added (0.1 mg/mL) (Millipore Sigma, Darmstadt, Germany), and the solution was stirred. The resulting SGF media were used fresh for each experiment.
Test compounds were dissolved in DMSO stock to 1 mM. An aliquot of the DMSO stock solution was removed and diluted in the SGF Media in 15 mL falcon tubes to generate a compound concentration of 1 μM. A 1 mL aliquot was immediately removed and diluted once with 1 volume of acetonitrile for T0 timepoint. The mixture was sealed and mixed at 37° C. in an incubator. Aliquots (1 mL) were removed at regular intervals and immediately quenched by the addition of 1 volume of acetonitrile. The resulting samples were analyzed by LC/MS to determine degradation rates in SGF.

Row | Compound | Assay 2 (SIF) (% @ Remaining 4 hours) [1] | Assay 1 (SGF) (% Remaining @ 1 hours) [2]
1 | CCCC(=O)Oc1ccc(/N=N/c2ccc(OC(=O)CCC)c(C(=O)O)c2)cc1C(=O)O [Compound 32, 2-butanoyloxy-5-[(E)-(4-butanoyloxy-3-carboxy-phenyl)azo]benzoic Acid] | A (A: <25% of the tested compound remaining) | A (A: <25% of the tested compound remaining)
2 | C=C1CC[C@H](OC(=O)C2OCC[C@@H](C)O2)C/C1=C/C=C1\CCC[C@]2(C)[C@@H]([C@H](C)CCCC(C)C)CC[C@@H]12 (stereo partly drawn) [Compound 69, [(1 S,3Z)-3-[(2E)-2-[(1R,3aS,7aR)-1-[(1R)-1,5-dimethylhexyl]-7a-methyl-2,3,3a,5,6,7-hexahydro-1H-inden-4-ylidene]ethylidene]-4-methylene-cyclohexyl] (4R)-4-methyl-1,3-dioxane-2-carboxylate] | C (C: >75% of the tested compound remaining) | C (C: >75% of the tested compound remaining)
3 | CCCC(=O)OC[C@@H](OC(=O)CCC)[C@@H](OC(=O)CCC)[C@H](OC(=O)CCC)[C@@H](OC(=O)CCC)C(=O)Oc1ccc(/C=C/c2cc(OC(=O)[C@H](OC(=O)CCC)[C@@H](OC(=O)CCC)[C@H](OC(=O)CCC)[C@@H](COC(=O)CCC)OC(=O)CCC)cc(OC(=O)[C@H](OC(=O)CCC)[C@@H](OC(=O)CCC)[C@H](OC(=O)CCC)[C@@H](COC(=O)CCC)OC(=O)CCC)c2)cc1 [Compound 19, [4-[(E)-2-[3,5-bis[[(2R,3S,4R,5R)-2,3,4,5,6-penta(butanoyloxy)hexanoyl]oxy]phenyl]vinyl]phenyl] (2R,3S,4R,5R)-2,3,4,5,6-penta(butanoyloxy)hexanoate] | B (B: 25-75% of the tested compound remaining) | B (B: 25-75% of the tested compound remaining)
4 | CC(=O)OCC[C@@H](C)OC(=O)Oc1ccc(/C=C/c2cc(OC(=O)O[C@H](C)CCOC(C)=O)cc(OC(=O)O[C@H](C)CCOC(C)=O)c2)cc1 [Compound 24, [(3R)-3-[4-[(E)-2-[3,5-bis[[(1R)-3-acetoxy-1-methyl-propoxy]carbonyloxy]phenyl]vinyl]phenoxy]carbonyloxybutyl] acetate] | A (A: <25% of the tested compound remaining) | C (C: >75% of the tested compound remaining)
5 | CCCC(=O)O[C@H]1[C@@H](Oc2ccc(N)cc2C(=O)O)OC[C@@H](OC(=O)CCC)[C@H]1OC(=O)CCC [Compound 41, 5-amino-2-(((2R,3R,4R,5R)-3,4,5-tris(butyryloxy)tetrahydro-2H-pyran-2-yl)oxy)benzoic Acid] | C (C: >75% of the tested compound remaining) | C (C: >75% of the tested compound remaining)
6 | C[C@@H](O)CCOC(=O)c1cc(N)ccc1O [Compound 39, [(3R)-3-hydroxybutyl] 5-amino-2-hydroxy-benzoate] | C (C: >75% of the tested compound remaining) | C (C: >75% of the tested compound remaining)
7 | CCCC(=O)Oc1ccc([C@@H]2CC(=O)c3c(OC(=O)CCC)cc(OC(=O)CCC)cc3O2)cc1 [Compound 22, (S)-2-(4-(butyryloxy)phenyl)-4-oxochromane-5,7-diyl dibutyrate] | A (A: <25% of the tested compound remaining) | B (B: 25-75% of the tested compound remaining)
8 | CCCC(=O)O[C@H]1[C@@H](OC(=O)CCC)COC(O)[C@@H]1OC(=O)CCC (stereo partly drawn) [Compound 72, (3R,4S,5S)-2-hydroxytetrahydro-2H-pyran-3,4,5-triyl Tributyrate] | A (A: <25% of the tested compound remaining) | C (C: >75% of the tested compound remaining)
